Reference: patent publication US20180282323A1, “Mesoionic imidazole derivatives as insecticides” (BAYER CROPSCIENCE AKTIENGESELLSCHAFT, priority 2015, published 2018)

Test: log P by HPLC on reversed-phase column (EEC directive 79/831 Annex V.A8)
Type: physicochemical
Conditions: not given
Method: a) The determination of the [M+H]^+ by LC-MS in the acidic range was effected at pH 2.7, with acetonitrile (containing 0.1% formic acid) and water as eluents; linear gradient from 10% acetonitrile to 95% acetonitrile, instrument: Agilent 1100 LC system, Agilent MSD system, HTS PAL.
The log P values reported in the tables and preparation examples above were determined in accordance with EEC directive 79/831 Annex V.A8 by HPLC (High Performance Liquid Chromatography) using a reversed-phase column (C18). Temperature 43° C.

With `CCNCC(=O)c1c([O-])n(Cc2cnc(Cl)s2)c2cccc[n+]12` [Example I-1-021, 1-[(2-Chloro-1,3-thiazol-5-yl)methyl]-3-(N-ethylglycyl)-1H-imidazo[1,2-a]pyridin-4-ium-2-olate] as the molecule, how does the chromatographic logP read?
Its chromatographic logP is 0.57.

Same assay, conditions: HPLC on reversed-phase column

With `CSc1ccc[n+]2c(C(=O)NC3CC3)c([O-])n(Cc3ccc(Cl)nc3)c12` [Example I-1-204] as the molecule, how does the “log p a)” value read?
The value was 2.05.

With `Cc1cnc(Cn2c([O-])c(C(=O)NCC(F)(F)F)[n+]3ccccc23)cn1` [Example I-1-242] as the molecule, how does the “log p a)” value read?
The value was 1.57.

Which “log p a)” value does the source give for `Cc1ccc[n+]2c(C(=O)NC3CCCCC3)c([O-])n(Cc3ccc(Cl)nc3)c12` [Example I-1-253] here?
Its value is 2.72.

Which “log p a)” value does the source give for `Cc1ccc[n+]2c(C(=O)NCC3CCCCC3)c([O-])n(Cc3ccc(Cl)nc3)c12` [Example I-1-255] here?
Its value is 3.21.

For `Cc1ccc[n+]2c(C(=O)NCC3CCCC3)c([O-])n(Cc3ccc(Cl)nc3)c12` [Example I-1-256], which “log p a)” value is on record?
Its value is 2.8.

With `Cc1ccc[n+]2c(C(=O)NC3(C#N)CCCCC3)c([O-])n(Cc3ccc(Cl)nc3)c12` [Example I-1-263] as the molecule, how does the “log p a)” value read?
The value was 2.62.

For `Cc1ccc[n+]2c(C(=O)Nc3ccccn3)c([O-])n(Cc3ccc(Cl)nc3)c12` [Example I-1-264], which “log p a)” value is on record?
The value was 1.68.

With `N#CC1(NC(=O)c2c([O-])n(Cc3cnc(Cl)s3)c3cccc[n+]23)CC1` [Example I-1-270] as the molecule, how does the “log p a)” value read?
Its value is 1.58.

With `O=C(c1c([O-])n(Cc2cnc(Cl)s2)c2cccc[n+]12)N1CCCC1` [Example I-1-273] as the molecule, how does the “log p a)” value read?
The value was 1.52.

Which “log p a)” value does the source give for `CNC(=O)c1c([O-])n(Cc2cnc(Cl)cn2)c2cccc[n+]12` [Example I-1-280] here?
The value was 1.15.

For `COC(=O)c1c([O-])n(Cc2cnc(Cl)cn2)c2c(C)ccc[n+]12` [Example I-1-281], which “log p a)” value is on record?
Its value is 1.47.

With `O=C(Nc1cc(Cl)cc(Cl)c1)c1c([O-])n(Cc2ccc(Cl)nc2)c2cccc[n+]12` [Example I-1-295] as the molecule, how does the “log p a)” value read?
Its value is 4.1.

With `O=C(Nc1cccc(OC(F)(F)F)c1)c1c([O-])n(Cc2ccc(Cl)nc2)c2cccc[n+]12` [Example I-1-298] as the molecule, how does the “log p a)” value read?
Its value is 3.55.

For `Cc1cccc(NC(=O)c2c([O-])n(Cc3ccc(Cl)nc3)c3cccc[n+]23)c1` [Example I-1-300], which “log p a)” value is on record?
Its value is 1.41.

Same assay, conditions: HPLC on reversed-phase column (footnote a)

For `O=C(COc1ccccc1)c1c([O-])n(Cc2ccc(Cl)nc2)c2cccc[n+]12` [Example I-1-007], which log p is on record?
Its log p is 2.2.

Which log p does the source give for `CCNCC(=O)c1c([O-])n(Cc2ccc(Cl)nc2)c2cccc[n+]12` [Example I-1-024] here?
Its log p is 0.42.

For `COC(=O)COCC(=O)c1c([O-])n(Cc2ccc(Cl)nc2)c2cccc[n+]12` [Example I-1-030], which log p is on record?
Its log p is 1.31.

Which log p does the source give for `CNC(=O)c1ccn(CC(=O)c2c([O-])n(Cc3cnc(Cl)s3)c3cccc[n+]23)n1` [Example I-1-048] here?
The log p was 1.27.

With `O=C(Cn1ccnc1)c1c([O-])n(Cc2cnc(Cl)s2)c2cccc[n+]12` [Example I-1-050] as the molecule, how does the log p read?
Its log p is 0.46.

With `CNCC(=O)c1c([O-])n(Cc2cnc(Cl)s2)c2cccc[n+]12` [Example I-1-058] as the molecule, how does the log p read?
Its log p is 0.31.

For `O=C(CCl)c1c([O-])n(Cc2ccc(Cl)nc2)c2cc(C(F)(F)F)cc[n+]12` [Example I-1-063], which log p is on record?
The log p was 2.52.

With `N#Cc1cc[n+]2c(C(=O)CCl)c([O-])n(Cc3ccc(Cl)nc3)c2c1` [Example I-1-067] as the molecule, how does the log p read?
The log p was 1.83.

For `COCC(=O)c1c([O-])n(Cc2ccc(Cl)nc2)c2cc(C(F)(F)F)cc[n+]12` [Example I-1-069], which log p is on record?
Its log p is 1.99.

For `O=C(COc1cccc(Cl)c1)c1c([O-])n(Cc2cnc(Cl)s2)c2cccc[n+]12` [Example I-1-073], which log p is on record?
The log p was 2.87.

Which log p does the source give for `O=C(COc1ccc(Cl)cc1)c1c([O-])n(Cc2cnc(Cl)s2)c2cccc[n+]12` [Example I-1-074] here?
The log p was 2.84.

For `O=C(CCl)c1c([O-])n(Cc2ccc(Cl)nc2)c2c(Cl)ccc[n+]12` [Example I-1-090], which log p is on record?
The log p was 1.99.

For `Cc1ccc[n+]2c(C(=O)Cn3cc(Cl)cn3)c([O-])n(Cc3cnc(Cl)s3)c12` [Example I-1-095], which log p is on record?
Its log p is 2.27.

For `O=C(CCl)c1c([O-])n(Cc2ccc(Cl)nc2)c2ccc(F)c[n+]12` [Example I-1-099], which log p is on record?
The log p was 1.78.

For `O=C(CCl)c1c([O-])n(Cc2ccc(Cl)nc2)c2c(F)ccc[n+]12` [Example I-1-100], which log p is on record?
The log p was 1.81.

Which log p does the source give for `O=C(Cn1cccn1)c1c([O-])n(Cc2ccc(Cl)nc2)c2cc(C(F)(F)F)cc[n+]12` [Example I-1-102] here?
The log p was 2.08.

Which log p does the source give for `Cc1ccc2n(Cc3ccc(Cl)nc3)c([O-])c(C(=O)Cn3cccn3)[n+]2c1` [Example I-1-104] here?
The log p was 1.63.

For `O=C(Cn1cccn1)c1c([O-])n(Cc2ccc(Cl)nc2)c2c(F)ccc[n+]12` [Example I-1-105], which log p is on record?
Its log p is 1.55.

For `O=C(CCl)c1c([O-])n(Cc2cnc(Cl)s2)c2cc(Cl)cc[n+]12` [Example I-1-120], which log p is on record?
The log p was 2.17.

Which log p does the source give for `COCC(=O)c1c([O-])n(Cc2cnc(Cl)s2)c2cc(Cl)cc[n+]12` [Example I-1-123] here?
The log p was 1.90.

For `O=C(NC1CC1)c1c([O-])n(Cc2ccc(Cl)nc2)c2c(F)ccc[n+]12` [Example I-1-127], which log p is on record?
The log p was 1.82.

For `COC(=O)c1c([O-])n(Cc2ccc(Cl)nc2)c2c(Cl)ccc[n+]12` [Example I-1-130], which log p is on record?
Its log p is 1.56.

Which log p does the source give for `COC(=O)c1c([O-])n(Cc2ccc(Cl)nc2)c2cc(C(F)(F)F)cc[n+]12` [Example I-1-132] here?
The log p was 1.93.

For `CCNC(=O)c1c([O-])n(Cc2cnc(Cl)s2)c2cccc[n+]12` [Example I-1-134], which log p is on record?
Its log p is 1.58.

Which log p does the source give for `O=C(NCCc1ccc(Cl)cc1)c1c([O-])n(Cc2cnc(Cl)s2)c2cccc[n+]12` [Example I-1-139] here?
Its log p is 3.

For `O=C(NC1CC1)c1c([O-])n(Cc2cnc(Cl)s2)c2c(Cl)ccc[n+]12` [Example I-1-140], which log p is on record?
Its log p is 2.01.

Which log p does the source give for `O=C(NC1CC1)c1c([O-])n(Cc2cnc(Cl)s2)c2cc(C(F)(F)F)cc[n+]12` [Example I-1-141] here?
The log p was 2.38.

For `O=C(NCc1ccc(Cl)cc1)c1c([O-])n(Cc2cnc(Cl)s2)c2cccc[n+]12` [Example I-1-149], which log p is on record?
Its log p is 2.86.

Which log p does the source give for `O=C(Nc1ccc(Cl)cc1)c1c([O-])n(Cc2cnc(Cl)s2)c2cccc[n+]12` [Example I-1-150] here?
The log p was 3.39.

Which log p does the source give for `O=C(Nc1ccc(Cl)nc1)c1c([O-])n(Cc2cnc(Cl)s2)c2cccc[n+]12` [Example I-1-153] here?
Its log p is 3.06.

With `COC(=O)c1c([O-])n(Cc2ccc(Cl)nc2)c2c(F)cc(F)c[n+]12` [Example I-1-156] as the molecule, how does the log p read?
The log p was 1.56.

For `O=C(CCl)c1c([O-])n(Cc2cncc(Cl)c2)c2cccc[n+]12` [Example I-1-162], which log p is on record?
The log p was 1.53.

Which log p does the source give for `O=C(CCl)c1c([O-])n(Cc2ccc(C(F)(F)F)nc2)c2cccc[n+]12` [Example I-1-163] here?
The log p was 1.9.

With `COC(=O)c1c([O-])n(Cc2ccc(Cl)nc2)c2c(C)ccc[n+]12` [Example I-1-183] as the molecule, how does the log p read?
Its log p is 1.66.

For `O=C(NC1CC1)c1c([O-])n(Cc2cnc(Cl)s2)c2cc(Cl)cc[n+]12` [Example I-1-184], which log p is on record?
The log p was 2.14.

With `Cc1ccc[n+]2c(C(=O)Nc3ccc(Cl)cc3)c([O-])n(Cc3ccc(Cl)nc3)c12` [Example I-1-187] as the molecule, how does the log p read?
Its log p is 3.41.

With `COC(=O)c1c([O-])n(Cc2ccc(Cl)nc2)c2c(OC(F)(F)F)ccc[n+]12` [Example I-1-189] as the molecule, how does the log p read?
Its log p is 1.84.

With `COC(=O)c1c([O-])n(Cc2ccc(Cl)nc2)c2c(SC)ccc[n+]12` [Example I-1-194] as the molecule, how does the log p read?
The log p was 1.64.

For `O=C(NC1CC1)c1c([O-])n(Cc2ccc(Cl)nc2)c2c(F)cc(F)c[n+]12` [Example I-1-197], which log p is on record?
The log p was 1.99.

Same assay, conditions: pH 2.7

Which chromatographic logP does the source give for `CCNCC(=O)c1c([O-])n(Cc2cnc(Cl)s2)c2cccc[n+]12` [Example I-1-021, 1-[(2-Chloro-1,3-thiazol-5-yl)methyl]-3-(N-ethylglycyl)-1H-imidazo[1,2-a]pyridin-4-ium-2-olate] here?
Its chromatographic logP is 0.57.
